In article PMC8448937 (Journal of clinical pharmacy and therapeutics, 2021):
Read-outs that look alike come from different tables or passages of the source.

Tests used:
[1] = in vivo
[2] = non-pregnant adults; cited from earlier work
[3] = previous studies incl. initial analysis of P1026s data; cited from earlier work
[4] = clinical; details: female, human, in vivo
[5] = for CL/F (oral clearance): all women not receiving lopinavir/ritonavir, median; for C0: pre-dose
[6] = test system: CYP3A4; details: cited from earlier work
[7] = postpartum, with LPV/r, median (IQR)
[8] = postpartum, without LPV/r, other regimens, median (IQR)
[9] = postpartum, without LPV/r, with ATV/r, median (IQR)
[10] = third trimester, with LPV/r, median (IQR)
[11] = third trimester, without LPV/r, other regimens, median (IQR)
[12] = third trimester, without LPV/r, with ATV/r, median (IQR)

C[C@H](Cn1cnc2c(N)ncnc21)OCP(=O)(O)O [Tenofovir]
AUC0–24 (exposure) lower in third trimester compared to postpartum ([1]; female, human): 27%
decrease in AUC0–24 during third trimester compared to postpartum ([1]; female, human): 25%
increase in CL/F during third trimester compared to postpartum ([1]; female, human): 33%
oral clearance higher in third trimester compared to postpartum ([1]; female, human, po): 27%
differences in AUC0–24, third trimester vs postpartum [1]: did not reach statistical significance
exposure increased with concomitant lopinavir/ritonavir [2]: 32%
clearance higher in third trimester of pregnancy compared to postpartum [3]: 22–39%
exposure lower in third trimester of pregnancy compared to postpartum [3]: 20–33%
AUC(0-t) ([4]; AUC0–24): 2200 ng·h/mL
Cmax ([4]; Cmax): 257 ng/mL
concentration at 24 h ([5]; female, human, in vivo, C24, third trimester, without LPV/r, with ATV/r, 24 hour post-dose, median (IQR)): 47 ng/mL
half-life ([5]; female, human, in vivo, t1/2, postpartum, with LPV/r, median (IQR)): 12.5 h
half-life ([5]; female, human, in vivo, t1/2, third trimester, with LPV/r, median (IQR)): 17.5 h
CL/F (oral clearance) ([5]; postpartum): 48 L/h
CL/F [5, 7]: 49 (36 – 75) L/hr
Vd/F [5, 7]: 1224 (643 – 1312) L/hr
C0 [5, 7]: 59.4 (5.0 – 77.8) ng/mL
CL/F [5, 8]: 49 (30 – 58) L/hr
Vd/F [5, 8]: 757 (514 – 1133) L/hr
C0 [5, 8]: 74 (50 – 118) ng/mL
CL/F [5, 9]: 48 (38 – 63) L/hr
Vd/F [5, 9]: 949 (676 – 1246) L/hr
C0 [5, 9]: 60 (31 – 93) ng/mL
CL/F (oral clearance) ([5]; third trimester): 61 L/h
CL/F [5, 10]: 46 (40 – 60) L/hr
Vd/F [5, 10]: 1103 (973 – 1312) L/hr
C0 [5, 10]: 70 (53 – 85) ng/mL
CL/F [5, 11]: 57 (47 – 62) L/hr
Vd/F [5, 11]: 1159 (1037 – 1709) L/hr
t1/2 [5, 11]: 15.9 (14.3 – 19.2) hr
C0 [5, 11]: 54 (42 – 67) ng/mL
CL/F [5, 12]: 64 (57 – 85) L/hr
Vd/F [5, 12]: 1284 (1120 – 2181) L/hr
C0 [5, 12]: 48 (36 – 59) ng/mL

CC(C)(C)NC(=O)[C@@H]1C[C@@H]2CCCC[C@@H]2CN1C[C@@H](O)[C@H](Cc1ccccc1)NC(=O)[C@H](CC(N)=O)NC(=O)c1ccc2ccccc2n1 [saquinavir]
CYP3A4 inhibition [6]: weak inhibition
